Ki and GI50 data for seven molecules are collected here from US11596639B2, “Substituted indole Mcl-1 inhibitors” (Vanderbilt University, priority 2016, dated 2023).

One assay has as its target Mcl-1 (Homo sapiens (Human), UniProt Q07820). In words: Fluorescence polarization anisotropy (FPA) competition assay, FITC-Bak or FITC-Bim BH3 peptide. Type of assay: binding. The following applies: read-out: Ki for Inhibition of Mcl-1 by FPA assay.
In assay [1] the test system is H929 human cancer cell lines. Briefly: Cellular viability / proliferation (Cell TiterGlo, 72 h). Type of assay: cell-based. The following applies: Homo sapiens, NCI-H929, 72 h, read-out: GI50 on cellular proliferation of H929 human cancer cell lines, H929 cells, 72 h, Cell TiterGlo, 10% FBS. The essentials:
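Compounds were added as 2-fold serial dilutions from 50 μM (final DMSO <1%) to H929 cells seeded 1,000 per well in 10% FBS medium one day earlier.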
Background: Cellular ATP, detected with luciferase, serves as a proxy for viable cell number.

Mcl-1, sequence (Q07820 172-327): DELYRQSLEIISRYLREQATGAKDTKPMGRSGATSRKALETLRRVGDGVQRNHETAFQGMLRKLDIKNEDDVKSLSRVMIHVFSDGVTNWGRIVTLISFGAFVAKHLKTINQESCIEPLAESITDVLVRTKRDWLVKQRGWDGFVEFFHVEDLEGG

On to `Cc1cc(OCCCc2c3n(c4c(-c5c(C)nc(CN6CCN(C)CC6)nc5C)c(Cl)ccc24)[C@H](C)CN(c2cn(C)c4ccc(C(=O)O)cc24)C3=O)cc(C)c1Cl` [Example 396, (R)-3-(7-Chloro-10-(3-(4-chloro-3,5-dimethylphenoxy)propyl)-6-(4,6-dimethyl-2-((4-methylpiperazin-1-yl)methyl)pyrimidin-5-yl)-4-methyl-1-oxo-3,4-dihydropyrazino[1,2-a]indol-2(1H)-yl)-1-methyl-1H-indole-5-carboxylic acid], for which, on Mcl-1, the Ki – broadly, a dissociation constant, usually derived from enzyme kinetics or from competition with a known ligand – worked out at 1.8 nM. Further, the GI50 in assay [1] is less than 200 nM.
As to `Cc1cc(OCCCc2c3n(c4c(-c5c(C)nc(CN6CCC(O)C6)nc5C)c(Cl)ccc24)[C@H](C)CN(c2cn(C)c4ccc(C(=O)O)cc24)C3=O)cc(C)c1Cl` (stereo partly drawn) [Example 397, 3-((4R)-7-Chloro-10-(3-(4-chloro-3,5-dimethylphenoxy)propyl)-6-(2-((3-hydroxypyrrolidin-1-yl)methyl)-4,6-dimethylpyrimidin-5-yl)-4-methyl-1-oxo-3,4-dihydropyrazino[1,2-a]indol-2(1H)-yl)-1-methyl-1H-indole-5-carboxylic acid], the inhibition constant (Ki) at Mcl-1 amounted to 1.2 nM. In assay [1], the GI50 was 340 nM.
Regarding `Cc1cc(OCCCc2c3n(c4c(-c5c(C)nc(CN6CCOCC6)nc5C)c(Cl)ccc24)[C@H](C)CN(c2cn(C)c4ccc(C(=O)O)cc24)C3=O)cc(C)c1Cl` [Example 398, (R)-3-(7-Chloro-10-(3-(4-chloro-3,5-dimethylphenoxy)propyl)-6-(4,6-dimethyl-2-(morpholinomethyl)pyrimidin-5-yl)-4-methyl-1-oxo-3,4-dihydropyrazino[1,2-a]indol-2(1H)-yl)-1-methyl-1H-indole-5-carboxylic acid], the Ki on Mcl-1 is less than 1 nM. Moreover, the GI50 in assay [1] stood at 200 nM.
On the same counts, the results for `Cc1cc(N2CCCn3c(c(CCCOc4cc(C)c(Cl)c(C)c4)c4ccc(Cl)c(-c5c(C)ncnc5C)c43)C2=O)c2c(c1)cc(C(=O)O)n2C` [Example 399, 7-(8-Chloro-11-(3-(4-chloro-3,5-dimethylphenoxy)propyl)-7-(4,6-dimethylpyrimidin-5-yl)-1-oxo-4,5-dihydro-1H-[1,4]diazepino[1,2-a]indol-2(3H)-yl)-1,5-dimethyl-1H-indole-2-carboxylic acid] are 2.4 nM and 210 nM.
Take `Cc1cc(N2C[C@@H](C)n3c(c(CCCOc4cc(C)c(Cl)c(C)c4)c4ccc(Cl)c(-c5c(C)n[nH]c5C)c43)C2=O)c2c(c1)cc(C(=O)O)n2C` [Example 400, (R)-7-(7-chloro-10-(3-(4-chloro-3,5-dimethylphenoxy)propyl)-6-(3,5-dimethyl-1H-pyrazol-4-yl)-4-methyl-1-oxo-3,4-dihydropyrazino[1,2-a]indol-2(1H)-yl)-1,5-dimethyl-1H-indole-2-carboxylic acid]: the Ki on Mcl-1 came to 1.4 nM. The GI50 in assay [1] was determined as 430 nM.
For `Cc1cc(OCCCc2c3n(c4c(-c5c(C)nn(C)c5C)c(Cl)ccc24)[C@H](C)CN(c2cc(CN4CCCC4)cc4cc(C(=O)O)n(C)c24)C3=O)cc(C)c1Cl` [Example 401, (R)-7-(7-chloro-10-(3-(4-chloro-3,5-dimethylphenoxy)propyl)-4-methyl-1-oxo-6-(1,3,5-trimethyl-1H-pyrazol-4-yl)-3,4-dihydropyrazino[1,2-a]indol-2(1H)-yl)-1-methyl-5-(pyrrolidin-1-ylmethyl)-1H-indole-2-carboxylic acid], in that order: less than 1 nM and 280 nM.
With `Cc1cc(OCCCc2c3n(c4c(-c5c(C)nn(C)c5C)c(Cl)ccc24)[C@H](C)CN(c2cn(CCN4CCOCC4)c4cc(C(N)=O)ccc24)C3=O)cc(C)c1Cl` [Example 402, (R)-3-(7-Chloro-10-(3-(4-chloro-3,5-dimethylphenoxy)propyl)-4-methyl-1-oxo-6-(1,3,5-trimethyl-1H-pyrazol-4-yl)-3,4-dihydropyrazino[1,2-a]indol-2(1H)-yl)-1-(2-morpholinoethyl)-1H-indole-6-carboxamide], on Mcl-1, the Ki worked out at 4.9 nM. Moreover, the GI50 in assay [1] came out at 1100 nM.
